Consider 1 molecule from patent publication US7166762B2, “Method of constructing heart failure model animal” (Takeda Pharmaceutical Company Limited, priority 2000, dated 2007).

The subject of this test is β-receptor. The experiment in a line: Reactivity for dobutamine (β-receptor response, LVdp/dtmax) in anesthetized rats 1 week after the operation. In kind it is in vivo, rat. Particulars: i.v.; for reactivity of the β-receptor: difference in LVdp/dtmax between before and after administration (Δ): male JCL-Wistar rat, mean ± standard error. The protocol: A male JCL-Wistar rat (13 to 15 week-old) was anesthetized with pentobarbital (50 mg/kg, i.p.) and subjected to thoracotomy at the midline under artificial respiration. The pericardium was dissected to expose the heart, and the proximal portion of the ascending aorta was dissected. A thread was put through the proximal portion of the left coronary artery along with the cardiac muscle, with a needled suture, and the thread was ligated to occlude the coronary artery. Immediately after the occlusion of the coronary artery (within 5 minutes), a polyethylene tube having a length of 3 mm (outer diameter: 2.80 mm; inner diameter: 1.77 mm) was installed on the proximal portion of the ascending aorta to conduct stenosis of 40 to 50%. After that, close-chest operation was conducted, and the rat was returned to a breeding cage after spontaneous respiration had been confirmed, and bred for 1 week by a general procedure. The rats in which the recovery of spontaneous respiration had not been confirmed were excluded from the following analysis. After 1 week of the operation, to measure the hemodynamics, the rat was anesthetized with pentobarbital (40 mg/kg, i.p.). A tracheal cannula was inserted, then a mirror catheter having a pressure sensor (2F) was inserted from the right carotid artery to the left ventricle. The waveform of the left ventricular pressure was analyzed with a differential amplifier, and the maximum differential value (LVdp/dtmax) and the minimum differential value (LVdp/dtmin) were recorded.
On the other hand, in order to measure the blood pressure and to administrate a drug, a polyethylene tube was inserted to the left femoral artery and left femoral vein, respectively, and the heart rate carculated from the blood pressure pulse and the dipolar lead (II) electrocardiogram were recorded.
Dobutamime was dissolved in a solution of saline containing 0.01% of ascorbic acid, and the solution was administrated in a dose of 0.3 to 10 μg/kg i.v. to investigate the β-receptor response.
The basal hemodynamics after 1 week of the operation was represented by the value before the administration of dobutamime, and the reactivity of the β-receptor was represented by the difference between before and after the administration of dobutamime (Δ mmHg/sec) by the mean value±standard error.

Turning to `CC(CCc1ccc(O)cc1)NCCc1ccc(O)c(O)c1` (stereo not drawn) [Dobutamine], the “reactivity of the β-receptor: difference in LVdp/dtmax between before and after administration (Δ)” value (0.3 μg/kg, group with coronary stenosis and stenosis of the proximal portion of the aorta) is 278 ± 144 mmHg/sec; the “reactivity of the β-receptor: difference in LVdp/dtmax between before and after administration (Δ)” value (0.3 μg/kg, sham-operated group) is 2287 ± 8 mmHg/sec; the “reactivity of the β-receptor: difference in LVdp/dtmax between before and after administration (Δ)” value (1.0 μg/kg, group with coronary stenosis and stenosis of the proximal portion of the aorta) amounted to 832 ± 501 mmHg/sec; the “reactivity of the β-receptor: difference in LVdp/dtmax between before and after administration (Δ)” value (1.0 μg/kg, sham-operated group) was found to be 4127 ± 112 mmHg/sec; the “reactivity of the β-receptor: difference in LVdp/dtmax between before and after administration (Δ)” value (3.0 μg/kg, group with coronary stenosis and stenosis of the proximal portion of the aorta) is recorded as 1641 ± 794 mmHg/sec; the “reactivity of the β-receptor: difference in LVdp/dtmax between before and after administration (Δ)” value (3.0 μg/kg, sham-operated group) was 7135 ± 753 mmHg/sec. Besides, the “reactivity of the β-receptor: difference in LVdp/dtmax between before and after administration (Δ)” value (10 μg/kg, group with coronary stenosis and stenosis of the proximal portion of the aorta) is 2431 ± 1028 mmHg/sec; the “reactivity of the β-receptor: difference in LVdp/dtmax between before and after administration (Δ)” value (10 μg/kg, sham-operated group) came out at 7654 ± 999 mmHg/sec. Moreover, under “all doses 0.3, 1.0, 3.0, 10 μg/kg, coronary + proximal aorta stenosis group vs sham-operated group”, the “maximum reaction of LVdp/dtmax in the stenosis group as compared with the sham-operated group” value is “remarkably decreased”.
